This note sets out measurements from patent publication US9682126B2, “Postprandial gastrokinetic agent” (ZERIA PHARMACEUTICAL CO., LTD., priority 2013, dated 2017).

For experiment [1], the system named is Suncus murinus. The experiment in a line: Gastric motility in interdigestive period, sham-operated vs vagotomized (Example 2). The experiment is classed as in vivo. The note with it: motilin 50 ng/kg/min iv over 10 minutes. The protocol:
Each of Suncus motilin (Scrum Inc., Tokyo, Japan) and human ghrelin (Asubio Pharma Co., Ltd., Hyogo, Japan) were dissolved in PBS containing 0.1% bovine serum albumin. Suncus murinus (male, outbred KAT strain, 7 to 15 weeks old, 60 to 100 g) was used for the experiment. Each animal was bred in a plastic cage provided with an empty can as a nest box under the following conditions: temperature at 23±2° C., illumination between 8:00 and 20:00, and free intake of commercial trout feed (SP, Nippon Formula Feed Mfg Co., Ltd., Yokohama, Japan). After 3 hours of fasting, Suncus murinus was anesthetized by an intraperitoneal injection of pentobarbital sodium (50 mg/kg). Through a midline incision, the stomach was exposed outside the body, and a force transducer was fixed via suture in the circular muscle direction of the body of stomach. The wire extending from the force transducer was inserted through the abdominal wall, passed under the skin, and exposed at the back of the neck. Thereafter, truncal vagotomy was performed. A lower portion of the esophagus was exposed, both branches of the vagus nerve were isolated, and about 3 mm of the vagus nerve was excised above the hepatic branch and the celiac branch. For sham-operated Suncus murinus, the vagus nerve was exposed, but not excised. An intravenous catheter was inserted in the right jugular, and extracorporeally fixed to the back. The catheter was filled with heparinized saline (100 units/mL) to prevent clotting. From 2 days after the operation, the gastric motility was recorded. Administration of motilin was initiated 10 minutes after completion of spontaneous phase III. Synthesized suncus motilin was continuously injected at 50 ng/kg/min over 10 minutes, and the continuously injected amount was 50 μL/100 g BW/min. Administration of ghrelin was initiated 10 minutes after completion of spontaneous phase II. […] Amplified analog signals were converted into digital signals by an analog-to-digital converter (ADC-20, Pico Technology Ltd, St Neots, UK), and the digital signals were recorded on a computer. Phase III contractions of MMC in conscious Suncus murinus were defined on the basis of those in dogs and humans (that is, clustered contractions with an amplitude of 8 g or more that lasts for 5 minutes or more). Gastric motility was quantitated using a motility index (MI). A motility index (MI) based on a drug was calculated using the following equation. MI (%)=A/B×100 A: AUC of contractions for 10 minutes during which the drug was administered B: […] Statistical analysis After ANOVA, Student's t test was performed.

In experiment [2] the test system is Suncus murinus. As to the kind of experiment: Gastric motility in postprandial period, sham-operated vs vagotomized (Example 2). It is filed as in vivo. The protocol:
Each of Suncus motilin (Scrum Inc., Tokyo, Japan) and human ghrelin (Asubio Pharma Co., Ltd., Hyogo, Japan) were dissolved in PBS containing 0.1% bovine serum albumin. Suncus murinus (male, outbred KAT strain, 7 to 15 weeks old, 60 to 100 g) was used for the experiment. Each animal was bred in a plastic cage provided with an empty can as a nest box under the following conditions: temperature at 23±2° C., illumination between 8:00 and 20:00, and free intake of commercial trout feed (SP, Nippon Formula Feed Mfg Co., Ltd., Yokohama, Japan). After 3 hours of fasting, Suncus murinus was anesthetized by an intraperitoneal injection of pentobarbital sodium (50 mg/kg). Through a midline incision, the stomach was exposed outside the body, and a force transducer was fixed via suture in the circular muscle direction of the body of stomach. The wire extending from the force transducer was inserted through the abdominal wall, passed under the skin, and exposed at the back of the neck. Thereafter, truncal vagotomy was performed. A lower portion of the esophagus was exposed, both branches of the vagus nerve were isolated, and about 3 mm of the vagus nerve was excised above the hepatic branch and the celiac branch. For sham-operated Suncus murinus, the vagus nerve was exposed, but not excised. An intravenous catheter was inserted in the right jugular, and extracorporeally fixed to the back. The catheter was filled with heparinized saline (100 units/mL) to prevent clotting. From 2 days after the operation, the gastric motility was recorded. 1 g of feed was given to the Suncus murinus during phase I to observe postprandial contractions. Motilin was continuously injected at 50 ng/kg/min over 10 minutes 20 minutes after completion of intake of feed. Amplified analog signals were converted into digital signals by an analog-to-digital converter (ADC-20, Pico Technology Ltd, St Neots, UK), and the digital signals were recorded on a computer. […] Gastric motility was quantitated using a motility index (MI). A motility index (MI) based on a drug was calculated using the following equation. […]

Consider `CC[C@H](C)[C@H](NC(=O)[C@@H]1CCCN1C(=O)[C@@H](NC(=O)[C@@H](N)Cc1ccccc1)C(C)C)C(=O)N[C@@H](Cc1ccccc1)C(=O)N[C@H](C(=O)N[C@@H](Cc1ccc(O)cc1)C(=O)NCC(=O)N[C@@H](CCC(=O)O)C(=O)N[C@@H](CC(C)C)C(=O)N[C@@H](CCC(N)=O)C(=O)N[C@@H](CCCNC(=N)N)C(=O)N[C@@H](CCSC)C(=O)N[C@@H](CCC(N)=O)C(=O)N[C@@H](CCC(=O)O)C(=O)N[C@@H](CCCCN)C(=O)N[C@@H](CCC(=O)O)C(=O)N[C@@H](CCCNC(=N)N)C(=O)N[C@@H](CC(N)=O)C(=O)N[C@@H](CCCCN)C(=O)NCC(=O)N[C@@H](CCC(N)=O)C(=O)O)[C@@H](C)O` [motilin], for which the “motilin-induced phase III-like contractions” value in the experiment with Suncus murinus [1] (both sham-operated and vagotomized, 10 minutes after spontaneous phase III) is reported as “phase III-like contractions were observed”. For the same compound, in the experiment with Suncus murinus [1] (phase I), the “contraction duration due to motilin, sham-operated vs vagotomized” value was “a significant difference was not observed” and the “motility index (MI) during administration of motilin, sham-operated vs vagotomized” value is “a significant difference was not observed”. The “MI of postprandial motilin-induced contractions, vagotomized compared with sham-operated” value in the experiment with Suncus murinus [2] (motilin 50 ng/kg/min after intake of feed) is given as “significantly higher”. Moreover, the “phase III-like contractions” value with Suncus murinus [2] (sham-operated, after intake of feed, motilin 50 ng/kg/min, 10-minute administration) was “did not induce phase III-like contractions”. For the same compound, the “phase III contractions” value with Suncus murinus [2] (vagotomized, after intake of feed, motilin 50 ng/kg/min, 10-minute administration) is “induced strong phase III contractions”.
